Results reported in US10604514B2, “6-(5-membered heteroaryl)isoquinolin-3-yl carboxamides and preparation and use thereof” (Samumed, LLC, priority 2017, dated 2020).
Read-outs that look alike come from different tables or passages of the source.

Key:
DYRK1A kinase = DYRK1A kinase (Homo sapiens (Human), UniProt Q13627); experiment: DYRK1A kinase assay (Ser/Thr 18 peptide Z-lyte, FRET)
[1] = tested on: Tau phosphorylation at Ser396 (pSer396), SH-SY5Y cells; experiment: Tau phosphorylation at Ser396 (pSer396) in SH-SY5Y cells, ELISA/western blot; type: cell-based, human; conditions: Homo sapiens; SH-SY5Y cells, overnight (16-18 h); read-out: pSer396 Tau EC50;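 note: cell lysates probed for reduced Tau pSer396 via ELISA (colorimetric) or western blot (chemiluminescence), both with one shared pSer396 antibody, EC50 for lowering phosphorylation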
[2] = tested on: SW480 colon carcinoma cells; experiment: Cell viability assay (CellTiter-Glo) in SW480 cells; type: cell-based, human; conditions: Homo sapiens; for EC50: 96 h, cell viability, SW480 cells, four days, CellTiter-Glo; for inhibition at 10 µM: SW480, read-out: percent inhibition at 10 μM;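 for all read-outs here: SW480 cells stably carrying an Sp5-luciferase TCF/LEF reporter, luminescent ATP signal as viability measure, DMSO-treated cells as control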
[3] = tested on: Wnt activity (Sp5-Luc reporter in SW480 colon carcinoma cells); experiment: Wnt activity screening assay (Sp5-Luc reporter gene assay); type: cell-based, human; conditions: Homo sapiens; for EC50: Sp5-Luc reporter, SW480 cells, 36 to 48 hours; for inhibition at 10 µM: SW480, read-out: percent inhibition at 10 μM
Text: The screening assay for Wnt activity is described as follows. Reporter cell lines can be generated by stably transducing cancer cell lines (e.g., colon cancer) or primary cells (e.g., IEC-6 intestinal cells) with a lentiviral construct that includes a Wnt-responsive promoter driving expression of the firefly luciferase gene.
SW480 colon carcinoma cells were transduced with a lentiviral vector expressing luciferase with a human Sp5 promoter consisting of a sequence of eight TCF/LEF binding sites. SW480 cells stably expressing the Sp5-Luc reporter gene and a hygromycin resistance gene were selected by treatment with 150 μg/mL of hygromycin for 7 days. These stably transduced SW480 cells were expanded in cell culture and used for all further screening activities. Each compound was dissolved in DMSO as a 10 mM stock and used to prepare compound source plates. Serial dilution (1:3, 10-point dose-response curves starting from 10 μM) and compound transfer was performed using the ECHO 550 (Labcyte, Sunnyvale, Calif.) into 384-well white solid bottom assay plates (Greiner Bio-One) with appropriate DMSO backfill for a final DMSO concentration of 0.1%. For Sp5-Luc reporter gene assays, the cells were plated at 4,000 cells/well in 384-well plates with a DMEM medium containing 1% fetal bovine serum, and 1% Penicillin-Streptomycin and incubated for 36 to 48 hours at 37° C. and 5% CO2. Following incubation, 15 μl of BriteLite Plus luminescence reagent (Perkin Elmer) was added to each well of the 384-well assay plates. The plates were placed on an orbital shaker for 2 min and then luminescence was quantified using the Envision (Perkin Elmer) plate reader. Readings were normalized to DMSO only treated cells, and normalized activities were utilized for EC50 calculations using the dose-response log (inhibitor) vs. response -variable slope (four parameters) nonlinear regression feature available in GraphPad Prism 5.0 (or Dotmatics).

IL-6 = IL-6 inhibition in LPS-stimulated human peripheral blood mononuclear cells (HTRF); type: cell-based; conditions: Homo sapiens, PBMC; for EC50: IL-6, LPS-stimulated huPBMCs, HTRF
Experimental: Fresh Normal PB MNC (Catalog # PB001, AllCells, Alameda, Calif.) were shipped overnight at 4° C. and resuspended in Roswell Park Memorial Institute (RPMI) 1640 Medium, with GlutaMAX Supplement (Catalog #61870127, ThermoFisher Scientific, Waltham, Mass.) supplemented with 1% Penicillin-Streptomycin (Catalog #151401633 ThermoFisher Scientific, Waltham, Mass.) and 1% fetal bovine serum (FBS) (Catalog #16140089, ThermoFisher Scientific, Waltham, Mass.) assay media.
Fresh normal human peripheral blood mononuclear cells (huPBMCs) were resuspended in 1% FBS-RPMI assay media with 1% Penicillin-Streptomycin 1% to a cell concentration of 1×10e6 cells/mL. Each compound was dissolved in DMSO (Catalog # D8418-100 ml, Sigma-Aldrich, St. Louis, Mo.) as a 10 mM stock and used to prepare compound source plates. Serial dilution (1:3, 10-point dose-response curves starting from 10 μM) and compound transfer was performed using the ECHO 550 (Labcyte, Sunnyvale, Calif.) into 384-well white Proxiplate-Plus assay plates (Catalog #6008289, PerkinElmer, Shelton, Conn.) with appropriate DMSO backfill for a final DMSO concentration of 0.25%. huPBMCs were plated at 5000 cells/well in the 384-well Proxiplate-Plus assay plates and incubated at 37° C.-5% CO2 for 2 hours. 50 ng/mL of Lipopolysaccharides from Escherichia coli 0111:B4 (Catalog # L5293-2 ML, Sigma-Aldrich, St. Louis, Mo.) was added after 2 hours and cells were incubated for another 22 hours at 37° C.-5% CO2. After 22 hour incubation, a mixture of anti-IL6 XL665 and anti-IL-6 Cryptate diluted in reconstitution buffer (Catalog #62IL6PEC, Cisbio Inc., Bedford, Mass.) was added to each well. Following incubation for 3 hours at room temperature, Homogeneous Time-Resolved Fluorescence (HTRF) was measured using the Envision (Perkin Elmer, Shelton, Conn.) at 665 nm and […]. The ratio of fluorescence at 665 nm to 620 nm was used as a readout for IL-6 quantification. All samples were processed in duplicate. Readings were normalized to DMSO treated cells and normalized activities were utilized for EC50 calculations. EC50 was determined using software generated by Dotmatics Limited (Windhill Bishops Stortford Herts, UK) using the Levenberg-Marquardt 4 parameter fitting procedure with finite different gradients.

[4] = tested on: LL29 cells (primary human fibroblasts derived from IPF patients), α-smooth muscle actin; experiment: Inhibition of fibrotic process: αSMA in TGF-β1-treated primary human fibroblasts from IPF patients (LL29 cells); type: cell-based; conditions: Homo sapiens, Fibroblast; for EC50: 96 h, % αSMA-positive LL29 cells, TGF-β1 20 ng/mL, 4 days; for inhibition at 10 µM: read-out: percent inhibition at 10 μM
Text: Representative compounds were screened using primary human fibroblasts (derived from IPF patients) treated with TGF-β1 to determine their ability to inhibit the fibrotic process.
Primary human fibroblasts derived from IPF patients (LL29 cells) [^1Xiaoqiu Liu, et. al., “Fibrotic Lung Fibroblasts Show Blunted Inhibition by cAMP Due to Deficient cAMP Response Element-Binding Protein Phosphorylation”, Journal of Pharmacology and Experimental Therapeutics (2005), 315(2), 678-687; ^2Watts, K. L., et. al., “RhoA signaling modulates cyclin D1 expression in human lung fibroblasts; implications for idiopathic pulmonary fibrosis”, Respiratory Research (2006), 7(1), 88] were obtained from American Type Culture Collection (ATCC) and expanded in F12 medium supplemented with 15% Fetal Bovine Serum and 1% Penicillin/Streptomycin.
Each compound was dissolved in DMSO as a 10 mM stock and used to prepare compound source plates. Serial dilution (1:2, 11-point dose-response curves from […] to 0.94 nM) and compound transfer was performed using the ECHO 550 (Labcyte, Sunnyvale, Calif.) into 384-well clear bottom assay plates (Greiner Bio-One) with appropriate DMSO backfill for a final DMSO concentration of 0.1%. LL29 cells were plated at 1,500 cells/well in 70 μL/well F12 medium supplemented with 1% Fetal Bovine Serum. TGF-β1 (Peprotech; 20 ng/mL) was added to the plates to induce fibrosis (ref. 1 and 2 above). Wells treated with TGF-31 and containing DMSO were used as positive control, and cells with only DMSO were negative control. Cells were incubated at 37° C. and 5% CO2 for 4 days. Following incubation for 4 days, SYTOX green nucleic acid stain (Life Technologies [Thermo Fisher Scientific]) was added to the wells at a final concentration of 1 μM and incubated at room temperature for 30 min. Cells were then fixed using 4% formaldehyde (Electron Microscopy Sciences), washed 3 times with PBS followed by blocking and permeabilization using 3% Bovine Serum Albumin (BSA; Sigma) and 0.3% Triton X-100 (Sigma) in PBS. Cells were then stained with antibody specific to α-smooth muscle actin (αSMA; Abcam) (ref. 1 and 2 above) in 3% Bovine Serum Albumin (BSA; Sigma) and 0.3% Triton X-100 (Sigma) in PBS, and incubated overnight at 4° C. Cells were then washed 3 times with PBS, followed by incubation with Alexa Flor-647 conjugated secondary antibody (Life Technologies [Thermo Fisher Scientific]) and DAPI in 3% Bovine Serum Albumin (BSA; Sigma) and 0.3% Triton X-100 (Sigma) in PBS at room temperature for 1 hour. Cells were then washed 3 times with PBS and plates were sealed for imaging. αSMA staining was imaged by excitation at 630 nm and emission at 665 nm and quantified using the Compartmental Analysis program on the CellInsight CX5 (Thermo Scientific). Dead or apoptotic cells were excluded from analysis based on positive SYTOX green staining. % of total cells positive for αSMA were counted in each well and normalized to the average of 11 wells treated with TGF-β1 on the same plate using Dotmatics' Studies Software.

GSK3β kinase = GSK3β kinase (Homo sapiens (Human), UniProt P49841); experiment: GSK3β kinase assay (Ser/Thr 09 peptide Z-lyte, FRET); type: biochemical; conditions: method text calls the value IC50;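 note: Coumarin/fluorescein emission ratio converted to percent phosphorylation against unphosphorylated (0%) and phosphorylated (100%) controls, 1 h compound incubation at room temperature, 11-point threefold dilutions from 10 µM, run in duplicate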
[5] = DYRK1A kinase, method text calls the value IC50

GSK3β kinase, sequence (P49841 whole entry): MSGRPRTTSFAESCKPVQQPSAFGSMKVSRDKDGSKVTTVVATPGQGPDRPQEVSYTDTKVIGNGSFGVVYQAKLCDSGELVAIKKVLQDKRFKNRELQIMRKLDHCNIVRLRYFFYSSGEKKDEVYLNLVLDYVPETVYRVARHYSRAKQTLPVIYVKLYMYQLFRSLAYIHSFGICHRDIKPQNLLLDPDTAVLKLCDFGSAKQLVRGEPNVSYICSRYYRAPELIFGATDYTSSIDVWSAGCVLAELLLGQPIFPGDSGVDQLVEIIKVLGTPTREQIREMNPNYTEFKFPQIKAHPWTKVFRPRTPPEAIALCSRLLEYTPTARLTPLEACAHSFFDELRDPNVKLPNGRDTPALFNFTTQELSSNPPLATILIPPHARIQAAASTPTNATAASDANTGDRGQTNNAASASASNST

SMILES	EC50 (DYRK1A kinase; [5]) [nM]	EC50 [1] [nM]	EC50 [2] [nM]	EC50 [3] [nM]	EC50 (IL-6) [nM]	EC50 (GSK3β kinase) [nM]	EC50 (DYRK1A kinase) [nM]	EC50 [4] [nM]	inhibition at 10 µM [2] [%]	inhibition at 10 µM [3] [%]	inhibition at 10 µM [4] [%]	inhibition at 10 µM (IL-6; read-out: percent value in parentheses below EC50 >10) [%]
Cn1cc(-c2cc(F)c3cnc(NC(=O)[C@H]4CC[C@H](N(C)C)CC4)cc3c2)cn1 [Compound 1, trans-4-(Dimethylamino)-N-(8-fluoro-6-(1-methyl-1H-pyrazol-4-yl)isoquinolin-3-yl)cyclohexane-1-carboxamide]	4	368	839	239	3040	107		445				
Cn1cc(-c2cc3cc(NC(=O)[C@H]4CC[C@H](N(C)C)CC4)ncc3cc2F)cn1 [Compound 2, trans-4-(Dimethylamino)-N-(7-fluoro-6-(1-methyl-1H-pyrazol-4-yl)isoquinolin-3-yl)cyclohexane-1-carboxamide]	4	559	4450	799	1280	246		150				
Cn1cc(-c2cc(F)c3cnc(NC(=O)[C@H]4CC[C@H](N5CCOCC5)CC4)cc3c2)cn1 [Compound 3, trans-N-(8-Fluoro-6-(1-methyl-1H-pyrazol-4-yl)isoquinolin-3-yl)-4-morpholinocyclohexane-1-carboxamide]	4	458	6670	1860	1120	131		153				
CC(C)CN1CCC(C(=O)Nc2cc3cc(-c4ccn(C)n4)ccc3cn2)CC1 [Compound 7, 1-Isobutyl-N-(6-(1-methyl-1H-pyrazol-3-yl)isoquinolin-3-yl)piperidine-4-carboxamide]	376		> 10000	> 10000	9420	1900		2660	42.5	32.9		

Second part, led by results:

EC50 (DYRK1A kinase; [5]) [nM]	EC50 [1] [nM]	EC50 [2] [nM]	EC50 [3] [nM]	EC50 (IL-6) [nM]	EC50 (GSK3β kinase) [nM]	EC50 (DYRK1A kinase) [nM]	SMILES	EC50 [4] [nM]	inhibition at 10 µM [2] [%]	inhibition at 10 µM [3] [%]	inhibition at 10 µM [4] [%]	inhibition at 10 µM (IL-6; read-out: percent value in parentheses below EC50 >10) [%]
110		> 10000	> 10000	3220	1160		Cc1ncc(-c2cc(F)c3cnc(NC(=O)[C@H]4CC[C@H](N5CCOCC5)CC4)cc3c2)o1 [Compound 19, trans-N-(8-Fluoro-6-(2-methyloxazol-5-yl)isoquinolin-3-yl)-4-morpholinocyclohexane-1-carboxamide]	> 10000	44.8	22.4	20.6	
3	320		1860				Cc1ncc(-c2ccc3cnc(NC(=O)[C@H]4CC[C@H](N(C)C)CC4)cc3c2)o1 [Compound 45, trans-4-(Dimethylamino)-N-(6-(2-methyloxazol-5-yl)isoquinolin-3-yl) cyclohexane-1-carboxamide]	95				
	2830	486	> 10000	1120			[2H]c1c([2H])c(C(=O)Nc2cc3cc(-c4cncn4C)ccc3cn2)c([2H])c([2H])c1F [Compound 81, 4-Fluoro-N-(6-(1-methyl-1H-imidazol-5-yl)isoquinolin-3-yl)benzamide-2,3,5,6-d4]	309		36.3		
		> 10000	> 10000	> 10000	703	1	Cn1cc(-c2ccc3cnc(NC(=O)c4ccnc(N5CC[N+](C)([O-])CC5)c4)cc3c2)nn1 [Compound 224, 1-methyl-4-(4-((6-(1-methyl-1H-1,2,3-triazol-4-yl)isoquinolin-3-yl)carbamoyl)pyridin-2-yl)piperazine 1-oxide]	> 10000	24.6	43.8	13.1	13.7
1000		> 10000	> 10000	8960	6710		Cc1ncc(-c2cc(F)c3cnc(NC(=O)N(C)C4CCN(C)CC4)cc3c2)o1 [Compound 229, 3-(8-Fluoro-6-(2-methyloxazol-5-yl)isoquinolin-3-yl)-1-methyl-1-(1-methylpiperidin-4-yl)urea]	9980	49.5	0		
